According to patent publication US20260008758A1, “LINEAR DIPEPTIDYL PEPTIDASE 1 INHIBITORS AND USES THEREOF” (Insmed Incorporated, priority 2024, published 2026):

Tests used:
human DPP1 enzyme = human DPP1 enzyme (Homo sapiens (Human), UniProt P53634); experiment: Human DPP1 enzyme single-point percent inhibition testing (HL-60 lysate, H-Gly-Arg-AMC substrate); format: biochemical; settings: read-out: human DPP1 enzyme % inhibition @ 10 nM, 10 nM compound, 400 μM H-Gly-Arg-AMC, 10 min pre-incubation at 37° C.
human DPP1 enzyme, sequence (P53634 25-134): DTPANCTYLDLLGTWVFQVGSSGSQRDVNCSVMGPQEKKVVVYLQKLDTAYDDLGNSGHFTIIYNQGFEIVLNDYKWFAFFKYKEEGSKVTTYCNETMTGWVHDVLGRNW
human DPP1 enzyme, sequence (P53634 231-394): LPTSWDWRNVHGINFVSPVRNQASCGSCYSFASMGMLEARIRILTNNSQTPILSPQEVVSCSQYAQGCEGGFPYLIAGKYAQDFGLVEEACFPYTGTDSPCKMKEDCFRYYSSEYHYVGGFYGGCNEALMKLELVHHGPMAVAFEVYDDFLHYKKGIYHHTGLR
human DPP1 enzyme, sequence (P53634 395-463): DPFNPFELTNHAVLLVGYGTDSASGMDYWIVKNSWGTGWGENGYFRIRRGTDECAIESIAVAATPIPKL
Procedure: A crude lysate of HL-60 cells (ATCC; Manassas, VA) was used as a source of human DPP1 enzyme in the assay. Lysate was prepared in 1% Triton X-100 in PBS at a concentration of 20,000 live cells per […] of lysis buffer and was centrifuged at 16,000 rcf for 10 minutes at 4° C., after which supernatant was collected and flash-frozen in liquid nitrogen. Test articles were applied to human DPP1 enzyme in Assay Buffer (25 mM MES pH 6.0, 50 mM NaCl, 5 mM DTT) in a total reaction volume of 125 μL. 25 μL of compound diluted to 50 nM in Assay Buffer plus 5% DMSO was first added to 50 μL of HL-60 lysate diluted to contain a DPP1 enzyme concentration of roughly 1 ng/μL and allowed to pre-incubate for 10 minutes at 37° C. after which 50 μL of 1000 μM H-Gly-Arg-AMC substrate (Bachem; St. Torrance, CA) was added, giving final compound concentration of 10 nM, a final substrate concentration of 400 μM and a final DMSO concentration of 1%. Substrate cleavage was measured for 90 minutes at 37° C., with fluorescence at Excitation/Emission 350/450 nm measured every 5 minutes. DPP1 concentration was interpolated based on its activity relative to a standard curve of activated human recombinant DPP1 enzyme. Percent inhibition at 10 nM was calculated for each test article based on remaining DPP1 activity compared to enzyme activity in wells that received only vehicle control.

DPP1 in HL-60 cells = DPP1 in HL-60 cells (Homo sapiens (Human), UniProt P53634); experiment: DPP1 cell single-point percent inhibition testing (HL-60 cells, H-Gly-Phe-AFC substrate); format: cell-based; settings: read-out: DPP1 cell % inhibition @ 5 nM, 5 nM compound, 100 μM H-Gly-Phe-AFC, 60 min pre-incubation at 37° C.
DPP1 in HL-60 cells, sequence (P53634 25-134): as the sequence (P53634 25-134) above
DPP1 in HL-60 cells, sequence (P53634 231-394): as the sequence (P53634 231-394) above
DPP1 in HL-60 cells, sequence (P53634 395-463): as the sequence (P53634 395-463) above
Procedure: HL-60 cells (ATCC; Manassas, VA) were maintained in RPMI-1640 supplemented with 20% heat-inactivated FBS and 1× Antibiotic Antimycotic (Cytiva; Marlborough, MA). Media was changed every three to four days and cells were not allowed to exceed 1×10^6 cells per mL. Prior to assay, cells were collected by centrifugation at 500 rcf for 3 minutes, resuspended in RPMI (with no additional supplements) and counted. Cells were diluted in RPMI to a concentration of 5×10^5 live cells per mL and transferred to black 96-well plates for assay, 60 μL per well. Test articles were diluted to 25 nM in RPMI plus 0.5% DMSO, and 20 μL was added to each assay well. Compound was allowed to pre-incubate with cells with gentle shaking at 100 rpm for 60 minutes at 37° C. in a cell culture incubator maintained at 5% CO2, after which 20 μL of 500 μM H-Gly-Phe-AFC cell-permeable substrate (MP Biomedicals; Solon, OH) in RPMI was added to each well, giving final compound concentration of 5 nM, a final substrate concentration of 100 μM and a final DMSO concentration of 0.1%. Plates were returned to the incubator with shaking at 100 rpm for 30 minutes, after which fluorescence was measured at Excitation/Emission 400/505 nm. Percent Inhibition was calculated from RFU values by first subtracting background values (wells in which RPMI was substituted for cells) from each well, and then subtracting background-subtracted RFU derived from wells that received a final concentration of 10 μM brensocatib. This value represents the non-specific substrate cleavage from the HL-60 cells, and the remaining RFU should theoretically be solely the contribution of DPP1 enzyme activity. The final percent inhibition value was calculated for each test article based on remaining RFU compared to RFU from wells that received only vehicle control.

| Structure (SMILES) | inhibition at 0.01 µM (human DPP1 enzyme) | inhibition at 0.005 µM (DPP1 in HL-60 cells) |
| --- | --- | --- |
| COCCN(C)CCn1c(=O)oc2ccc(-c3ccc(C[C@@H](C#N)NC(=O)[C@@H](O)CN(C)C)c(F)c3)cc21 [Compound 368] | ≥ 66.7% | ≤ 76.5% |
| CN(C)C[C@H](O)C(=O)N[C@H](C#N)Cc1ccc(-c2ccc3cnn(C)c3c2)cc1 [Compound 370] | ≤ 40% | ≤ 76.5% |
| CN(C)C[C@H](O)C(=O)N[C@H](C#N)Cc1ccc(-c2ccc3nnn(C)c3c2)cc1 [Compound 371] | ≤ 40% | ≤ 76.5% |
| CN(C)C[C@H](O)C(=O)N[C@H](C#N)Cc1ccc(-c2cnc3c(n2)CCCC3)cc1 [Compound 372] | ≤ 40% | ≤ 76.5% |
| CN(C)C[C@H](O)C(=O)N[C@H](C#N)Cc1ccc(-c2ccc3cnn(C)c3c2)cc1F [Compound 374] | ≤ 40% | ≤ 76.5% |
| CN(C)C[C@H](O)C(=O)N[C@H](C#N)Cc1ccc(-c2cnc3c(n2)CCCC3)cc1F [Compound 376] | ≤ 40% | ≤ 76.5% |
| CN(C)C[C@H](O)C(=O)N[C@H](C#N)Cc1ccc(-c2ccc(S(=O)(=O)N3CCC3)cc2)cc1F [Compound 377] | ≤ 40% | ≤ 76.5% |
| CN(C)C[C@H](O)C(=O)N[C@H](C#N)Cc1cc2c(cc1F)-c1ccc(F)cc1CO2 [Compound 378] | ≤ 40% | ≤ 76.5% |
| CN(C)C[C@](C)(O)C(=O)NC(C#N)Cc1cc2c(cc1F)-c1cc(C3COC3)c(F)cc1CO2 (stereo partly shown) [Compound 379] | ≤ 40% | ≤ 76.5% |
| CN(C)C[C@](C)(O)C(=O)N[C@H](C#N)Cc1cc2c(cc1F)-c1ccc(C#N)cc1CO2 [Compound 380] | ≤ 40% | ≤ 76.5% |
| CN(C)C[C@](C)(O)C(=O)NC(C#N)Cc1cc2c(cc1F)-c1cc3c(cc1CO2)oc(=O)n3C (stereo partly shown) [Compound 381] | 40 to 66.7% | 76.5 to 93.9% |
| CN(C)C[C@](C)(O)C(=O)NC(C#N)Cc1cc2c(cc1F)-c1cc(C#N)ccc1CO2 (stereo partly shown) [Compound 382] | ≤ 40% | ≤ 76.5% |
| CN(C)C[C@](C)(O)C(=O)NC(C#N)Cc1cc2c(cc1F)-c1ccc3oc(=O)n(C)c3c1CO2 (stereo partly shown) [Compound 383] | ≤ 40% | ≤ 76.5% |
| CN(C)C[C@](C)(O)C(=O)N[C@H](C#N)Cc1ccc(-c2ccc3c(c2)C2(CC3)CCN(C)CC2)cc1 [Compound 384] | ≥ 66.7% | ≤ 76.5% |
| CN(C)C[C@](C)(O)C(=O)N[C@H](C#N)Cc1ccc(-c2ccc3c(c2)C2(CCCN(C)C2)C(=O)N3C)cc1 (stereo partly shown) [Compound 385] | ≥ 66.7% | ≥ 93.9% |
| CN(C)CCn1c(=O)oc2ccc(-c3ccc(C[C@@H](C#N)NC(=O)[C@@](C)(O)CN(C)C)cc3)cc21 [Compound 386] | ≥ 66.7% | 76.5 to 93.9% |
| CN(C)C[C@](C)(O)C(=O)N[C@H](C#N)Cc1ccc(-c2ccc3c(c2)C2(CN(C)C2)OC3=O)cc1 [Compound 388] | ≥ 66.7% | ≥ 93.9% |
| CCN1C(=O)Cc2ccc(-c3ccc(C[C@@H](C#N)NC(=O)[C@@](C)(O)CN(C)C)cc3)cc21 [Compound 389] | 40 to 66.7% | 76.5 to 93.9% |
| CN(C)C[C@](C)(O)C(=O)N[C@H](C#N)Cc1ccc(-c2ccc3c(c2)C2(CCN(C)C2)OC3=O)cc1 (stereo partly shown) [Compound 390] | ≥ 66.7% | ≤ 76.5% |
| CN(C)C[C@](C)(O)C(=O)N[C@H](C#N)Cc1ccc(-c2ccc3cnn(C4CCN(C)CC4)c3c2)cc1 [Compound 391] | ≥ 66.7% | ≤ 76.5% |
